In patent US20040161839A1, “Method to alter sugar moieties” (priority 2003, published 2004):

How the values were obtained:
[1] = molecular target: T1, DesI (Streptomyces venezuelae, UniProt Q9ZGH0); assay: Incubation with purified DesI in the presence of L-glutamate, HPLC analysis; 4-aminotransferase kinetics; assay type: biochemical
T1 sequence (Q9ZGH0 1-415): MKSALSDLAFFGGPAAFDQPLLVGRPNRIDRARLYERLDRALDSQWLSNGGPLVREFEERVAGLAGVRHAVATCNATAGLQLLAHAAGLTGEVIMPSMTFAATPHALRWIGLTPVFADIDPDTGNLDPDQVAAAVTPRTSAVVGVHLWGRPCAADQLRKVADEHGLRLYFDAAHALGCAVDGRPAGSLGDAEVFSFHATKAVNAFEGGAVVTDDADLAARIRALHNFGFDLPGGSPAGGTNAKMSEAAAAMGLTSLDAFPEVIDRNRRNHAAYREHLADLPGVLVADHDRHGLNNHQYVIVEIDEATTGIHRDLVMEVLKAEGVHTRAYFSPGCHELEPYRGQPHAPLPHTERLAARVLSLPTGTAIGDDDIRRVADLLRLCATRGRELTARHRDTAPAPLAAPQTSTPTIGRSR
Text: To verify the catalytic function of DesI, the desI gene was amplified by PCR and cloned into the pET-28b(+) expression vector (Novagen) with a His6-tag at the N-terminus. The produced DesI protein was purified to near homogeneity by a Ni-NTA column (Qiagen) followed by FPLC on a MonoQ column.

[2] = test system: Streptococcus pyogenes; assay: Antibiotic activity, filter paper disc test on agar plates; assay type: cell-based; conditions: for activity against Streptococcus pyogenes grown on Mueller-Hinton agar plates: purified compounds; for antibiotic activity against Streptococcus pyogenes (inhibition zone around disc): 20 μL of each sample (1.6 mM in MeOH) on filter paper discs, Mueller-Hinton agar plates, overnight at 37° C.
Procedure: The antibiotic activity of a compound of formula (13) and (14) against Streptococcus pyogenes was examined by separately applying 20 μL of each sample (1.6 mM in MeOH) to sterilized filter paper discs which were placed onto the surface of S. pyogenes grown on Mueller-Hinton agar plates (Mangahas, 1996).

[3] = molecular target: cytochrome P450 hydroxylase (PikC) (Streptomyces venezuelae, UniProt O87605); assay: Incubation with purified PikC in vitro (aglycone hydroxylation); assay type: biochemical
Chain of cytochrome P450 hydroxylase (PikC) (O87605 whole entry): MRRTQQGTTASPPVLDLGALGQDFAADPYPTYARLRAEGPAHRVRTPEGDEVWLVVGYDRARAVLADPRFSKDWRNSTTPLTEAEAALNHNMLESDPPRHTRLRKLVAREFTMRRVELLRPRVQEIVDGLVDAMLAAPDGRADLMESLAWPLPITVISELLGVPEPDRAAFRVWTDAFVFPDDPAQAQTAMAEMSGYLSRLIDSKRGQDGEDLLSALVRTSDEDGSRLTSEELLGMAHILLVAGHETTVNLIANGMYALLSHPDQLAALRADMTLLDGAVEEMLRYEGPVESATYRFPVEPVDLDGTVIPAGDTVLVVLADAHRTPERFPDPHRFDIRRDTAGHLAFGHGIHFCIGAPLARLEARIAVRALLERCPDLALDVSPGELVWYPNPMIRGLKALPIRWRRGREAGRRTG
Text: Another noteworthy, albeit unexpected result was the fact that the aglycone of the isolated macrolide 31 was 10-deoxymethynolide instead of methymycin and neomethymycin analogues that are hydroxylated. […] It is possible that the cytochrome P450 hydroxylase (PikC), which catalyzes the hydroxylation of 10-deoxymethynolide and narbonolide (Xue et al., 1998) is sensitive to structural variations on the appended sugar. […] A similar observation was also noted in the case where desosamine was replaced by quinovose (Example 4). It could be argued that the presence of a substituent (either hydroxyl or amino group) at C-4 in the sugar moiety is responsible, at least in part, for decreasing or preventing hydroxylation of the macrolide.

[4] = test system: DNA; conditions: tight DNA binding, literature; cited from earlier work
[5] = substrate: Cc1cn([C@H]2C[C@H](O)[C@@H](COP(=O)(O)OP(=O)(O)O[C@H]3O[C@H](C)C(=O)[C@H](O)[C@H]3O)O2)c(=O)[nH]c1=O; assay: Incubation with purified DesI in the presence of L-glutamate, HPLC analysis; 4-aminotransferase kinetics; assay type: biochemical, Streptomyces venezuelae; conditions: other: DesI as PLP-dependent 4-aminotransferase, sugar substrate 6

## Cc1cn(C2CC(O)C(COP(=O)(O)OP(=O)(O)OC3OC(C)C(O)C(=O)C3O)O2)c(=O)[nH]c1=O [TDP-3-keto-deoxy-D-glucose (7), TDP-3-keto-deoxy-D-glucose]
[1]
  consumption of substrate / formation of new product by DesI: no consumption

## CCC1OC(=O)C(C)C(OC2OC(C)C(NC(C)=O)C(O)C2O)C(C)CC(C)C(=O)C=CC1C (centres unmarked) [compound 31]
[2]
  activity against Streptococcus pyogenes grown on Mueller-Hinton agar plates: inactive
[3]
  aglycone hydroxylation on incubation with purified PikC: no aglycone hydroxylation was discernible

## CCC1OC(=O)C(C)C(=O)C(C)C(OC2OC(C)C(NC(C)=O)C(O)C2O)C(C)CC(C)C(=O)C=CC1C (centres unmarked) [compound 32]
[2]
  activity against Streptococcus pyogenes grown on Mueller-Hinton agar plates: inactive
[3]
  aglycone hydroxylation on incubation with purified PikC: no aglycone hydroxylation was discernible

## CC[C@H]1OC(=O)[C@H](C)[C@@H](O[C@@H]2O[C@H](C)C[C@H](N(C)C)[C@H]2O)[C@@H](C)C[C@@H](C)C(=O)/C=C/[C@]1(C)O [formula (1), methymycin]
[2]
  antibiotic activity against Streptococcus pyogenes (inhibition zone around disc): clearly visible inhibition zones
  activity against Streptococcus pyogenes grown on Mueller-Hinton agar plates: clearly visible inhibition zones

## C[C@@H]1C[C@H](N(C)C)[C@@H](O)[C@H](O[C@H]2[C@@H](C)C[C@@H](C)C(=O)/C=C/[C@@H](C)[C@@H]([C@@H](C)O)OC(=O)[C@@H]2C)O1 [formula (2), neomethymycin]
[2]
  antibiotic activity against Streptococcus pyogenes (inhibition zone around disc): clearly visible inhibition zones
  activity against Streptococcus pyogenes grown on Mueller-Hinton agar plates: clearly visible inhibition zones

## CCC1OC(=O)C(C)C(OC2OC(C)CC(N(C)C)C2O[C@@H]2O[C@H](CO)[C@@H](O)[C@H](O)[C@H]2O)C(C)CC(C)C(=O)C=CC1(C)O (stereo partly drawn) [formula (13), C-2′β-glucosylated methymycin]
[2]
  antibiotic activity against Streptococcus pyogenes (inhibition zone around disc): no such clearings were discernible

## CC1CC(N(C)C)C(O[C@@H]2O[C@H](CO)[C@@H](O)[C@H](O)[C@H]2O)C(OC2C(C)CC(C)C(=O)C=CC(C)C(C(C)O)OC(=O)C2C)O1 (stereo partly drawn) [formula (14), C-2′β-glucosylated neomethymycin]
[2]
  antibiotic activity against Streptococcus pyogenes (inhibition zone around disc): no such clearings were discernible

## CC[C@H]1OC(=O)[C@H](C)C(=O)[C@H](C)[C@@H](O[C@@H]2O[C@H](C)C[C@H](N(C)C)[C@H]2O)[C@@H](C)C[C@@H](C)C(=O)/C=C/[C@]1(C)O [pikromycin]
[2]
  activity against Streptococcus pyogenes grown on Mueller-Hinton agar plates: clearly visible inhibition zones

## calicheamicin [calicheamicin (26)]
[4]
  Ka (DNA binding): 10^6-10^8

B1: DesI (Streptomyces venezuelae) (protein)
chain: T1 sequence (Q9ZGH0 1-415)
[5]
  Km: 130 ± 4 µM
